Results as given in US7105517B2 (priority 2001, dated 2006).
Values joined by “and” are separate entries in the source; they are usually repeats but may differ in a detail not shown here. Equal entries are not always repeated.

SMILES	melting point
Nc1nc(-c2ccccc2)c(-c2ccnc(Nc3cccc(F)c3)n2)s1	243 to 245 °C
CN1CCN(c2nc(-c3ccccc3)c(-c3ccnc(Nc4ccccc4)n3)s2)CC1	239 to 240 °C
COc1ccc(-c2cccc(Nc3nccc(-c4sc(N)nc4-c4ccccc4)n3)c2)cc1OC	236 to 237 °C
Nc1nc(-c2ccccc2)c(-c2ccnc(Nc3cccc(CO)c3)n2)s1	214 to 215 °C
Nc1nc(-c2ccccc2)c(-c2ccnc(Nc3ccccc3)n2)s1	244 to 245 °C and 247 to 250 °C
Nc1nc(-c2ccccc2)c(-c2ccnc(Nc3cccc(Cl)c3)n2)s1	243 to 245 °C
